Experimental findings from ChEMBL document CHEMBL5096151, “Phytocannabinoid Pharmacology: Medicinal Properties of Cannabis sativa Constituents Aside from the "Big Two"” (J Nat Prod, 2021) are described below.

SMILES strings stand for the structures. Where only a bound is given, the exact number is not on record here.

Test [1] has as its target T1, Transient receptor potential cation channel subfamily A member 1 (Homo sapiens, UniProt O75762). The test is described as follows: Agonist activity at TRPA1 (unknown origin) activation.
The target of test [2] is T2, Transient receptor potential cation channel subfamily V member 2 (Homo sapiens, UniProt Q9Y5S1).
T2 sequence (Q9Y5S1 whole entry): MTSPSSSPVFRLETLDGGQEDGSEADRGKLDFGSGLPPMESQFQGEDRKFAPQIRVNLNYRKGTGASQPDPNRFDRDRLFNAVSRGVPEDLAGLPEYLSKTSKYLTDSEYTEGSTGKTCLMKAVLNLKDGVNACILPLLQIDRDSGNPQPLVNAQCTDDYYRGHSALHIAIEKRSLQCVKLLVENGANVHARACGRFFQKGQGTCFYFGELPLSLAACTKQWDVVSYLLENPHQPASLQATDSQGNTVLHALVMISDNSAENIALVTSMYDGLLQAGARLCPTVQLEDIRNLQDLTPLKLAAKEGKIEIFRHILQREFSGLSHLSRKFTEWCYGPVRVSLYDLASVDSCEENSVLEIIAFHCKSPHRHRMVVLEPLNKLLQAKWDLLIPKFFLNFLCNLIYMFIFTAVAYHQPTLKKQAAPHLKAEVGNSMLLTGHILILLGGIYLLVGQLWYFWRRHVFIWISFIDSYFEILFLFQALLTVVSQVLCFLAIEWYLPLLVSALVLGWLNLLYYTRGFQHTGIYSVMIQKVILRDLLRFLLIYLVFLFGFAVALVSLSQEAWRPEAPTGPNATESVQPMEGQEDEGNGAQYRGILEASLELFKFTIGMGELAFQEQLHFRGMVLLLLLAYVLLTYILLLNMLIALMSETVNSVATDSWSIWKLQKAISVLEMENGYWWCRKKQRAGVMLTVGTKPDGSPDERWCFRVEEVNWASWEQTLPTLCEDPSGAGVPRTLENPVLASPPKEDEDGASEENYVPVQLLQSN
The test is described as follows: Agonist activity at ionomycin-stimulated TRPV2 (unknown origin) channel desensitization in presence of lysophosphatidylcholine.

Test [3] deals with T3, Transient receptor potential cation channel subfamily V member 1 (Homo sapiens, UniProt Q8NER1). The test is described as follows: Agonist activity at ionomycin-stimulated TRPV1 (unknown origin) activation.
T3 sequence (Q8NER1 whole entry): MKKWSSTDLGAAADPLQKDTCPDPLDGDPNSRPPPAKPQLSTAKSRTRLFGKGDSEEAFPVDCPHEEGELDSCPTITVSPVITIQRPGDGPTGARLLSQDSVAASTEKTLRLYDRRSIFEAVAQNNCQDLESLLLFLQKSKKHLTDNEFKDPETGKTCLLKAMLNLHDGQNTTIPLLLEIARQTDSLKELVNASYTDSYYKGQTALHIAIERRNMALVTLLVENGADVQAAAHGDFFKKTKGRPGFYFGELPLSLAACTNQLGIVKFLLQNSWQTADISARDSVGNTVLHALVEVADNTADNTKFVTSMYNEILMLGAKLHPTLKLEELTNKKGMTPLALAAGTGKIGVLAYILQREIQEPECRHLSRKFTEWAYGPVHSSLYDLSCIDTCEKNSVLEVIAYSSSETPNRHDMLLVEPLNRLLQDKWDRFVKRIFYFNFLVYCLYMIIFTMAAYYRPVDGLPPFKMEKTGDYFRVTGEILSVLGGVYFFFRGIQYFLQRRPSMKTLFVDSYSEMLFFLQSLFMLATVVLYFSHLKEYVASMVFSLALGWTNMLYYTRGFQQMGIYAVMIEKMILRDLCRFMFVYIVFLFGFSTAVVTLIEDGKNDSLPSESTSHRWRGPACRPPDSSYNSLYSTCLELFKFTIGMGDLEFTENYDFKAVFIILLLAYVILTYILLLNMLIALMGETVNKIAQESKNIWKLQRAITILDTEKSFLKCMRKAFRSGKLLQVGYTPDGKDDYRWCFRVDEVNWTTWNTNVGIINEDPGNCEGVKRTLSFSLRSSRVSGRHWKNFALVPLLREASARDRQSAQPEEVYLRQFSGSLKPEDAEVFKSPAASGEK
Test [4] has as its target T1, Transient receptor potential cation channel subfamily A member 1. The test is described as follows: Agonist activity at TRPA1 (unknown origin) channel desensitization in presence of isothiocyanate.
The target in test [5] is Transient receptor potential cation channel subfamily M member 8 (Homo sapiens, UniProt Q7Z2W7). Nature of the test: Antagonist activity at TRPM8 (unknown origin) ion channel.
Sequence of Transient receptor potential cation channel subfamily M member 8 (Q7Z2W7 whole entry): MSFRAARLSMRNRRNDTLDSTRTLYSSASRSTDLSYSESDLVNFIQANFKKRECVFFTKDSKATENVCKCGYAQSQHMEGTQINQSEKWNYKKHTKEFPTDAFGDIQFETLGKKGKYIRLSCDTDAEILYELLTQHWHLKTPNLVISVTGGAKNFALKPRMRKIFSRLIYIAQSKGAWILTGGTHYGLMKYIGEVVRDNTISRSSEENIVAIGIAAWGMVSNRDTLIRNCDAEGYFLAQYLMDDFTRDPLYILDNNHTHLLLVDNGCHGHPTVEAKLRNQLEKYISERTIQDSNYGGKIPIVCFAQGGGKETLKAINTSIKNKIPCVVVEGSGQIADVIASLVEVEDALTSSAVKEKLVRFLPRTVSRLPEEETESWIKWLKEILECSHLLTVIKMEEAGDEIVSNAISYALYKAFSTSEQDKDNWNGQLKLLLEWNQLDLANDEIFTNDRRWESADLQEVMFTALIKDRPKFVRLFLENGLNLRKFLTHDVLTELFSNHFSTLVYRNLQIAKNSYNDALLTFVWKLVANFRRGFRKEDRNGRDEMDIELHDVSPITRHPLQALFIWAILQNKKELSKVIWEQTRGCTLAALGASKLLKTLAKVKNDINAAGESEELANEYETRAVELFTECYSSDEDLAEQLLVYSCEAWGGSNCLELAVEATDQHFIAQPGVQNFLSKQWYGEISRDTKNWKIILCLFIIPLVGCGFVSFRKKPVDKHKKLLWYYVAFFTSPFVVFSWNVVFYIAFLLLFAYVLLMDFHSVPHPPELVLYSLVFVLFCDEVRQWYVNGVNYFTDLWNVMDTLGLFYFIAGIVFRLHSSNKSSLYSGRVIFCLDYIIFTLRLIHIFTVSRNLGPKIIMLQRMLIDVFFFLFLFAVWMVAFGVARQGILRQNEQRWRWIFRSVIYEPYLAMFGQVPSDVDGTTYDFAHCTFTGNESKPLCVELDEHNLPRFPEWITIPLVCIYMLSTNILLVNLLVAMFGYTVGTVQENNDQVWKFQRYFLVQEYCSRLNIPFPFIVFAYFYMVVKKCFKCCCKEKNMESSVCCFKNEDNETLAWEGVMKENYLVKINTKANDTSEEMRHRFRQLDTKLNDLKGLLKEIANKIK
For test [6], the target named is T4, Transient receptor potential cation channel subfamily V member 3 (Homo sapiens, UniProt Q8NET8).
T4 sequence (Q8NET8 whole entry): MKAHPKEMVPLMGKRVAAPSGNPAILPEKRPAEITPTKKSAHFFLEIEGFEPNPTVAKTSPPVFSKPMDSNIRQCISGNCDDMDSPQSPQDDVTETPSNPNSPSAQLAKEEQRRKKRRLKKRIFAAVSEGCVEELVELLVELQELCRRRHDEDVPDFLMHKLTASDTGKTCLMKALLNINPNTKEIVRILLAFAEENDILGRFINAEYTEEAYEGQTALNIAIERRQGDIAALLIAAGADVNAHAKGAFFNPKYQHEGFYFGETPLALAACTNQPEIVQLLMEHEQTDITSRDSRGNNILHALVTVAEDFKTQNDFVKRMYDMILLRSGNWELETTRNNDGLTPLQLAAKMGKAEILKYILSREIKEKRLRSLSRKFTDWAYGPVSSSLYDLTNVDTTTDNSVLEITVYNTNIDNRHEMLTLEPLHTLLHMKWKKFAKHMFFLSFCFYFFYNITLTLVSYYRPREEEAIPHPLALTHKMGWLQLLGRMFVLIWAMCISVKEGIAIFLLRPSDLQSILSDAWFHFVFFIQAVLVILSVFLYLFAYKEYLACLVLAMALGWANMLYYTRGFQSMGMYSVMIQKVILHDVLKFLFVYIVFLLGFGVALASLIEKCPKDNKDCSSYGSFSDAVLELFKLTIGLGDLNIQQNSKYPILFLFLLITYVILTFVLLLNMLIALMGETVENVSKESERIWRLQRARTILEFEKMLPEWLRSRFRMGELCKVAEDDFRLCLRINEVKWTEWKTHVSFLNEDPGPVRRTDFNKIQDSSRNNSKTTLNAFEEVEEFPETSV
The test is described as follows: Agonist activity at ionomycin-stimulated TRPV3 (unknown origin) channel desensitization in presence of carvacrol.

Test [7] concerns the target T3, Transient receptor potential cation channel subfamily V member 1. The test is described as follows: Agonist activity at ionomycin-stimulated TRPV1 (unknown origin) channel desensitization in presence of capsaicin.
The target in test [8] is T5, Transient receptor potential cation channel subfamily V member 4 (Homo sapiens, UniProt Q9HBA0). The test is described as follows: Agonist activity at ionomycin-stimulated TRPV4 (unknown origin) activation assessed as efficacy relative to control.
T5 sequence (Q9HBA0 whole entry): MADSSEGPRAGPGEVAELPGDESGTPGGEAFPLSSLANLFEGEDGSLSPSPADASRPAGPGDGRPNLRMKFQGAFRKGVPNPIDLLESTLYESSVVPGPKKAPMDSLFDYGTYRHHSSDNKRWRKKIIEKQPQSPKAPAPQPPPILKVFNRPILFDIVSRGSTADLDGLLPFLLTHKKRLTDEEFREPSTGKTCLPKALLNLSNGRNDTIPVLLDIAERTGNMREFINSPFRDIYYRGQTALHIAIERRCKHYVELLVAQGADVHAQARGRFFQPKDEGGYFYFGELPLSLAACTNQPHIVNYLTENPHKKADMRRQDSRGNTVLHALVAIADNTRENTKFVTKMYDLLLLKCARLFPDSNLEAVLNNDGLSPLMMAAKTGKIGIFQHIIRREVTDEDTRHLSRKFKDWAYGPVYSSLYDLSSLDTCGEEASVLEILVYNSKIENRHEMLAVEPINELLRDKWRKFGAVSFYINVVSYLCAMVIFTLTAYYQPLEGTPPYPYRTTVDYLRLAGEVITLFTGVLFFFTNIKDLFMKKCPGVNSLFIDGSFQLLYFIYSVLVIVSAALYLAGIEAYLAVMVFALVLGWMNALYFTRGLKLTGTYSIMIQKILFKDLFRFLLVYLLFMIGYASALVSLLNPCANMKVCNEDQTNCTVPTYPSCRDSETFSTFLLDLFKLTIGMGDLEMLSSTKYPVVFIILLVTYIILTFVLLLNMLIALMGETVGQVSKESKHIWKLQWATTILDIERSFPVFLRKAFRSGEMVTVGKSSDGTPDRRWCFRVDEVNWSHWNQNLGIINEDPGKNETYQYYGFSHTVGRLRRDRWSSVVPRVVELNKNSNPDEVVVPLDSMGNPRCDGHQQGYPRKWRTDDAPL
The target of test [9] is T6, Transient receptor potential cation channel subfamily V member 2 (Homo sapiens) (UniProt Q9Y5S1).
T6 sequence (whole entry): T2 sequence (Q9Y5S1 whole entry)
The test is described as follows: Agonist activity at ionomycin-stimulated TRPV2 (unknown origin) activation assessed as efficacy relative to control.

For test [10], the target named is T1, Transient receptor potential cation channel subfamily A member 1. The test is described as follows: Agonist activity at TRPA1 (unknown origin) activation assessed as efficacy relative to control. As to conditions: filed as agonist.
In test [11] the target is T5, Transient receptor potential cation channel subfamily V member 4. The test is described as follows: Agonist activity at ionomycin-stimulated TRPV4 (unknown origin) channel desensitization in presence of 4alphaPDD.
Test [12] deals with T4, Transient receptor potential cation channel subfamily V member 3. The test is described as follows: Agonist activity at ionomycin-stimulated TRPV3 (unknown origin) activation.
Test [13] addresses T3, Transient receptor potential cation channel subfamily V member 1. The test is described as follows: Agonist activity at ionomycin-stimulated TRPV1 (unknown origin) activation assessed as efficacy relative to control.
For test [14], the target named is T5, Transient receptor potential cation channel subfamily V member 4. Nature of the test: Agonist activity at ionomycin-stimulated TRPV4 (unknown origin) activation.
Test [15] addresses T7, Transient receptor potential cation channel subfamily V member 3 (Homo sapiens) (UniProt Q8NET8).
T7 sequence (whole entry): T4 sequence (Q8NET8 whole entry)
The test is described as follows: Agonist activity at ionomycin-stimulated TRPV3 (unknown origin) activation assessed as efficacy relative to control.

Test [16] concerns the target 5-hydroxytryptamine receptor 1A (Rattus norvegicus) (UniProt P19327). The test is described as follows: Displacement of [35S]GTPgammaS from 5HT1A in Sprague-Dawley rat brainstem by measuring efficacy incubated for 60 mins by radioligand binding assay relative to control. It is filed as tissue-based.
Test [17] addresses 5-hydroxytryptamine receptor 1A (Homo sapiens) (UniProt P08908). Nature of the test: Displacement of [35S]GTPgammaS from 5HT1A in […] by measuring efficacy incubated for 60 mins by radioligand binding assay relative to control. It is filed as cell-based.
Test [18] concerns the target Cannabinoid receptor 1 (Mus musculus, UniProt P47746). The test is described as follows: Agonist activity at CB1 receptor in albino MF1 mouse vas deferens assessed as inhibition of electrically evoked vas deferens contraction by incubated for 13 mins followed by electrical stimulation for 2 mins. The test is classed as functional.
The target of test [19] is T8, Cannabinoid receptor 2 (Homo sapiens, UniProt P34972). Nature of the test: Inhibition of human CB2 receptor. The test is classed as functional. As to conditions: concentration not given here.
T8 sequence (P34972 whole entry): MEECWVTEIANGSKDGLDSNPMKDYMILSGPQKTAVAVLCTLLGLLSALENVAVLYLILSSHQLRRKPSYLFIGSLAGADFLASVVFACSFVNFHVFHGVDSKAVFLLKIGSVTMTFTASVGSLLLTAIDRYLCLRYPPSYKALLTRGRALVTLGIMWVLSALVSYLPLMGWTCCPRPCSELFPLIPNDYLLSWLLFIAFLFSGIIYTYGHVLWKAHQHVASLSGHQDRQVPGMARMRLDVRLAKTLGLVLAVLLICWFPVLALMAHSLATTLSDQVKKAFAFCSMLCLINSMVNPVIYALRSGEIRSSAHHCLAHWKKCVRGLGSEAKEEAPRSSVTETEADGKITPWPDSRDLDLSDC
In test [20] the target is T9, G-protein coupled receptor 55 (Homo sapiens, UniProt Q9Y2T6). The test is described as follows: Antagonist activity at GPR55 (unknown origin) expressed in HEK293 cells assessed as LPI-stimulated ERK1/2 phosphorylation by measuring efficacy relative to control. The test is classed as functional, cell-based. The conditions noted are these: filed as antagonist.
T9 sequence (Q9Y2T6 whole entry): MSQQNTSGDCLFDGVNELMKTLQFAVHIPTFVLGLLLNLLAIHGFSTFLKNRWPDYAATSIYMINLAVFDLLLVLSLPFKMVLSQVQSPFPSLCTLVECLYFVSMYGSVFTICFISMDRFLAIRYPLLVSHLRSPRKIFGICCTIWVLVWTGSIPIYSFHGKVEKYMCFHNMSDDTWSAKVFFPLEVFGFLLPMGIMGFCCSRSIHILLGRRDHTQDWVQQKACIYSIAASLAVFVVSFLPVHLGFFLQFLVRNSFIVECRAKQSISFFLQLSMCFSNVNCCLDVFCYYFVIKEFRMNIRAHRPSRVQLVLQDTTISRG
The target of test [21] is T2, Transient receptor potential cation channel subfamily V member 2. Nature of the test: Agonist activity at ionomycin-stimulated TRPV2 (unknown origin) activation.
In test [22] the target is T9, G-protein coupled receptor 55. The test is described as follows: Antagonist activity at GPR55 (unknown origin) expressed in HEK293 cells assessed as LPI-stimulated ERK1/2 phosphorylation. The test is classed as functional, cell-based.
The target of test [23] is 5-hydroxytryptamine receptor 1A (Rattus norvegicus, UniProt P19327). The test is described as follows: Displacement of [35S]GTPgammaS from 5HT1A in Sprague-Dawley rat brainstem incubated for 60 mins by radioligand binding assay. It is filed as tissue-based. A general note: In a radioligand displacement assay an active substance lowers the binding of a labelled ligand.

Test [24] deals with T3, Transient receptor potential cation channel subfamily V member 1. Nature of the test: Agonist activity at TRPV1 (unknown origin) ion channel.
Test [25] addresses T8, Cannabinoid receptor 2. Nature of the test: Agonist activity at human CB2 receptor transfected in CHO cells assessed as inhibition of cyclic AMP production. The test is classed as functional, cell-based.
For test [26], the target named is T1, Transient receptor potential cation channel subfamily A member 1. The test is described as follows: Agonist activity at TRPA1 (unknown origin) channel desensitization in presence of icilin.
Test [27] addresses T8, Cannabinoid receptor 2. The test is described as follows: Agonist activity at CB2 receptor (unknown origin) expressed in CHO cell membranes assessed as increase in [35S]GTPgammaS binding incubated for 60 mins by liquid scintillation spectrometry analysis. The test is classed as functional, Membrane. (GTPγS is a poorly hydrolysed GTP analogue; its binding reports G protein activation.)

Test [28] addresses 5-hydroxytryptamine receptor 1A (Homo sapiens, UniProt P08908). Nature of the test: Displacement of [35S]GTPgammaS from 5HT1A in […] incubated for 60 mins by radioligand binding assay. It is filed as cell-based.
Test [29] has as its target Transient receptor potential cation channel subfamily V member 5 (Homo sapiens, UniProt Q9NQA5). The test is described as follows: Inhibition of TRPV5 channel (unknown origin) by Patch-clamp assay. (The patch-clamp technique gives a direct electrical read-out from membranes.)
Test [30] concerns the target Transient receptor potential cation channel subfamily V member 6 (Homo sapiens, UniProt Q9H1D0). The test is described as follows: Inhibition of TRPV6 channel (unknown origin) by Patch-clamp assay.
In test [31] the target is Cannabinoid receptor 1 (Homo sapiens, UniProt P21554). The test is described as follows: Binding affinity to CB1 (unknown origin) receptor assessed as inhibition constant.
The target of test [32] is T8, Cannabinoid receptor 2. Nature of the test: Agonist activity at CB2 receptor (unknown origin) expressed in CHO cell membranes assessed as increase in [35S]GTPgammaS binding by measuring efficacy incubated for 60 mins by liquid scintillation spectrometry analysis relative to control. The conditions noted are these: Membrane, filed as agonist. The test is classed as functional.

Test [33] has as its target T1, Transient receptor potential cation channel subfamily A member 1. Nature of the test: Agonist activity at TRPA1 (unknown origin) ion channel.

T1 sequence (O75762 whole entry): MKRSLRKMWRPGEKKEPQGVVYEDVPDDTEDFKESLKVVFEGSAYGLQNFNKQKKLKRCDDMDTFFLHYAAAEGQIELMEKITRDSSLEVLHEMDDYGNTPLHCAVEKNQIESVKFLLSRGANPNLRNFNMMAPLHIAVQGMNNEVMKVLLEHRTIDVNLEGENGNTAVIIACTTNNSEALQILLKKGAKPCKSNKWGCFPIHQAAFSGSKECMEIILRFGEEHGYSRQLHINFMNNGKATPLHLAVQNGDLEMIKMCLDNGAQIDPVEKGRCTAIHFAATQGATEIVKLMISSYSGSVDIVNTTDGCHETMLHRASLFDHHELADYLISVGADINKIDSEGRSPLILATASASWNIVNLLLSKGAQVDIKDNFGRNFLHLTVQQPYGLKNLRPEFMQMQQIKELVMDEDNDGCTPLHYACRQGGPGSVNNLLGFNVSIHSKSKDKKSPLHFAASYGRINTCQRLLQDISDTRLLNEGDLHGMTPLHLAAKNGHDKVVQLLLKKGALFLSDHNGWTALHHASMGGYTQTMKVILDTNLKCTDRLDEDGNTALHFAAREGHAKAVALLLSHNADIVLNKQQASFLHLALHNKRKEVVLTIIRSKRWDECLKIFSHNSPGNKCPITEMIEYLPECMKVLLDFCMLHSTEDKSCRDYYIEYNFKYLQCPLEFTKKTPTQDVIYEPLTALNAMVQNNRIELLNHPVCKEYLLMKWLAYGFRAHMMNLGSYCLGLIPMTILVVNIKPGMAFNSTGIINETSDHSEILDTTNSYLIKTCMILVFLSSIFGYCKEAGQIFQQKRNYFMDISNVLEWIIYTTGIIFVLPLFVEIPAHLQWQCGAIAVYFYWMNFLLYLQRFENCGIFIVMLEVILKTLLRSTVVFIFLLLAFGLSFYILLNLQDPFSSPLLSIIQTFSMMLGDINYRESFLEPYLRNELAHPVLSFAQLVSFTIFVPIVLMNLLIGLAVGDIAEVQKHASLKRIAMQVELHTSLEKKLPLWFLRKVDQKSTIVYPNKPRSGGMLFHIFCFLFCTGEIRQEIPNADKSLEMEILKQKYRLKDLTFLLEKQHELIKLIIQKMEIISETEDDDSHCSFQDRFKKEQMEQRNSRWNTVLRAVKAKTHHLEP
Sequence of 5-hydroxytryptamine receptor 1A (Homo sapiens) (P08908 whole entry): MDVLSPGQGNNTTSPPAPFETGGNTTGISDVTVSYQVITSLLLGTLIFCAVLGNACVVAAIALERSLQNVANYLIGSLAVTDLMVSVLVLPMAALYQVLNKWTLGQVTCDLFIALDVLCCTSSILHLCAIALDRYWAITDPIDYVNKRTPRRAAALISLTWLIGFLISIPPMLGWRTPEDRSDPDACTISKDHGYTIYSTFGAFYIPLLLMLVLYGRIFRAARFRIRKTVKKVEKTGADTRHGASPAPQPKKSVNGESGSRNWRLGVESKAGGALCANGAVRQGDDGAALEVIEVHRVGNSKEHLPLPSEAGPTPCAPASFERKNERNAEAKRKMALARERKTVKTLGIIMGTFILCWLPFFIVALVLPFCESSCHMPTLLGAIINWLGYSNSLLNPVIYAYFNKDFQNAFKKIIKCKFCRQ

For orientation: EC50 means the concentration that produces a half-maximal response. As usually defined, the IC50 is the concentration needed to halve the response being measured. Consider `CCCCCc1cc(O)c2c(c1)OC(C)(CCC=C(C)C)C=C2` (stereo not drawn) [CANNABICHROMENE], for which the EC50 is 90 nM in [1], 24200 nM in test [3], 1900 nM in [12] and 600 nM in [14]. The IC50 in test [2] was 6500 nM; in test [4], 370 nM; in test [5], 40700 nM; in [6], 201000 nM; in [7] it was more than 50000 nM; in test [11] it was 9900 nM. In addition, the Efficacy was 23% in test [8]; less than 10% in test [9]; 119% in [10]; less than 10% in test [13]; 20% in test [15].
In general, inhibition refers to the relative decrease from the control value, in per cent. The term Ki denotes a measure of affinity in units of concentration, obtained from inhibition or displacement. Take `CCCc1cc(O)c2c(c1)OC(C)(C)[C@@H]1CCC(C)=C[C@@H]21` [TETRAHYDROCANNABIVARIN]: the Efficacy in test [16] is 35%; in test [17], 134%; in [20] it was 61%; in test [8] (filed as agonist), 60%; in test [9] (filed as agonist), 74%; in test [10], 243%. Besides, the Efficacy in test [13] (filed as agonist) amounted to 68%; at Cannabinoid receptor 2 [32], 40%; in test [15] (filed as agonist), 72%. Moreover, the concentration for a half-maximal effect (EC50) in test [1] worked out at 1500 nM; on Cannabinoid receptor 1 [18], 12700 nM; in test [3], 1500 nM; in test [21], 4100 nM; in test [22], 880 nM; in test [23] it was 5.4 nM. The EC50 in [24] is 200 nM; at Cannabinoid receptor 2 [25] it was 38 nM; on Cannabinoid receptor 2 [27], 98 nM; in [28] it was 28 nM; in test [12], 3800 nM; in test [14] it was 6400 nM. For the same compound, the midpoint of the response in test [33], the EC50, lay at 70 nM. Moreover, the IC50 was found to be 800 nM in test [2]; 3070 nM in [4]; 20 nM in [5]; 3000 nM in test [6]; 1300 nM in test [7]; 870 nM in [26]. The figures for the IC50 in test [11], in test [29] and in test [30] were 3200 nM, 4800 nM and 9400 nM, respectively. On Cannabinoid receptor 2 [19], this compound displayed an inhibition of 0.143%. At Cannabinoid receptor 1 [31], the Ki worked out at 1000 nM.
In the case of `CCCc1cc(O)c2c(c1)OC(C)(C)c1ccc(C)cc1-2`, the EC50 was determined as 200 nM in test [1], 3100 nM in test [21], 3500 nM in [12] and 7300 nM in [14]. The IC50 is 2200 nM in [2]; 170 nM in [4]; 1600 nM in test [6]; 11900 nM in test [7]; 500 nM in test [26]; 4000 nM in test [11]. In addition, the Efficacy in test [8] is 37%; in [9] (filed as agonist) it was 79%; in test [10] it was 123%; in test [13] (filed as agonist), 50%; in [15] (filed as agonist) it was 78%.
